These results are taken from patent publication US10010560B2, “Small molecule HSP70 inhibitors” (THE TRUSTEES OF THE UNIVERSITY OF PENNSYLVANIA, priority 2014, dated 2018).

One experiment has as its system STAT3 and STAT1. Put plainly: IL-6 induced STAT3 and STAT1 phosphorylation in melanoma cell lines. The format is cell-based. The settings on record: cells pre-treated with compound. The source says: FIGS. 4A-4L illustrate that PET-16 impairs proteostasis. […] There is a general absence of obvious nuclei in PET-16 treated tumor cells. […] FIGS. 4D and 4E are gels of whole-cell extracts (WCE) prepared from human melanoma A875 (D) or 451 Lu (E) cells treated with DMSO, PES or PET-16 that were immunoprecipitated using an anti-HSP70 antibody. The excised band of about 70 kDa shown in the Coomassie gel is HSP70, as confirmed by liquid chromatography—tandem mass spectrometry analysis. FIGS. 4F-4I are western blots of cell lines were treated with DMSO, PES or PET-16 for 24 h and immunoblotted for the indicated proteins. FIG. 4J are western blots of indicated melanomas pretreated with DMSO, PES or PET-16, followed by treatment with IL-6. Cell extracts were immunoblotted for the proteins indicated. Inhibition of IL-6 induced STAT3 and STAT1 phosphorylation by PET-16. FIG. 4K is a western blot analysis indicating altered processing of cathepsin L from the larger precursor form to the smaller mature form in the indicated cells following PET-16 treatment for 24 h. FIG. 4L is a western blot of the human melanoma 451 Lu cells treated with DMSO, PES or PET-16 for 24 h. Cells were harvested in 1% NP40-containing lysis buffer, fractionated into detergent-soluble and detergent-insoluble preparations, and assayed by western blot for ubiquitin. […]

In experiment [1] the target is T1, full-length, nucleotide-free HSP70 protein (Homo sapiens, UniProt P0DMV8, E110D).
T1 construct: Full-length recombinant proteins of HSP70 (aa 1-641) as well as DnaK (aa 1-638); His6 (N); made in house; host or cells: E. coli BL21 Star (DE3)
Briefly: ITC binding to nucleotide-free full-length HSP70. The note with it: average and s.d. of two experiments, read-out: dissociation constant. The source says: FIGS. 3A-3L illustrate that PET-16 binds directly to ADP-bound HSP70 and DnaK. Specifically, FIGS. 3A-3H are isothermal calorimetric titration (ITC) assays of the indicated compounds (NRLLLTG—SEQ ID NO: 7, PES or PET-16) with purified HSP70-ADP, DnaK-ADP or HSP70-ATP proteins. The data are representative of three independent experiments. FIGS. 3I and 3J are ITC assays for the interaction between HSP70 (aa 386-616 of SEQ ID NO: 2) protein and PET-16 (I) or TPP (J). Binding constants (Kd values) are shown (average and s.d. from three independent experiments). PET-16 also binds directly to the purified, full-length, nucleotide-free HSP70 protein, with a reported dissociation constant of 5.2+/−0.1 micromolar, which is the average and standard deviation from two independent experiments (data not shown). FIG. 3K is ITC assay of HSP70 protein preincubated with ADP and PES for 1 h. The mixture was titrated into the sample cell containing PET-16. The data are representative of three independent ITC experiments. FIG. 3L are western blots of human lung carcinoma (H1299) cells that were pretreated with DMSO or excess (8×) PET-16 for 1 h prior to the addition of 20 μM B-PES for 5 h and examined for the expression of HSP70 or BCL-xL. B-PES-containing complexes were captured by Avidin resins and immunoblotted either with anti-HSP70 or anti-BCL-xL antibody. […]

The structures appear in SMILES notation.

T1 sequence (P0DMV8 whole entry E110D, the tested form may be a part): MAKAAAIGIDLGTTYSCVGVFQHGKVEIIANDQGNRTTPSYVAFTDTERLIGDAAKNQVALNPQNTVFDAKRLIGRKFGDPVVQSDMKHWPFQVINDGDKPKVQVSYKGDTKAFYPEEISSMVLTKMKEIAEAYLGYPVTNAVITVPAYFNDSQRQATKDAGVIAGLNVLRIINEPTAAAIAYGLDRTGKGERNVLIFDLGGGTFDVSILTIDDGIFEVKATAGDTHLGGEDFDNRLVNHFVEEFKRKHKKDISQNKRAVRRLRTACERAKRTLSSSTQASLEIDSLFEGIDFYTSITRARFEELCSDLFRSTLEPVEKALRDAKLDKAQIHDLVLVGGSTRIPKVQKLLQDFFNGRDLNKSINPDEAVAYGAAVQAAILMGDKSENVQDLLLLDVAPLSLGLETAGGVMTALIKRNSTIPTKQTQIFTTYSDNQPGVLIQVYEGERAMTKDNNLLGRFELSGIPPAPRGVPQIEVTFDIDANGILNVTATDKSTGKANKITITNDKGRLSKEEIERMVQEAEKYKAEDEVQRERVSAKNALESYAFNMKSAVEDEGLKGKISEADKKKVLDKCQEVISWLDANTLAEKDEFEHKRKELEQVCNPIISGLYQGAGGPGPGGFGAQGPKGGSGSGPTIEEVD

For the compound `C(#C[P+](c1ccccc1)(c1ccccc1)c1ccccc1)c1ccccc1.[Br-]` [PET-16, triphenyl(phenylethynyl)phosphonium bromide], the “IL-6 mediated phosphorylation of STAT3 and STAT1” value in the experiment with STAT3 and STAT1 was “inhibited”. Besides, in experiment [1], the Kd was determined as 5.2 µM.
